Laboratory results: US20240181087A1, “COMPOSITION FOR CONTRAST IMAGING OF CANCER” (ASTELLAS PHARMA INC., priority 2021, published 2024)

Test system: mouse tumor cell 4T1
Experiment: near-infrared fluorescence imaging after administration into tumor, 4T1 breast cancer model
Type: in vivo
Details: 4T1 tumor, 1 mg/mL saline, fluorescence imaging, incl. during tumor excision operation
From the text: A syngeneic tumor transplanted mouse model was created as follows referring to “Gan-Shikkan Model no Sakusei to Riyo (Cancer-Creation and Use of Disease Model)” (Takuro Nakamura, LIC, 2012). • (Breast Cancer) A tumor model was created by breeding a normal Balb/c mouse (weight: about 20 g to 30 g) for 14 days with mouse tumor cell 4T1 subcutaneously administered thereto. • (Colorectal Cancer) A tumor model was created by breeding a normal Balb/c mouse (weight: about 20 g to 30 g) for 14 days with CT26 (colorectal cancer cell) subcutaneously administered thereto. • (Skin Cancer) A tumor model was created by breeding a C57BL/6 mouse (weight: about 15 g to 20 g) for 14 days with B16F1 (skin cancer cell) subcutaneously administered thereto.
Subsequently, to the tumor of each of the model mice, 0.02 to 0.05 mL of a saline containing the compound III or ICG (concentration of the compound III or ICG: 1 mg/mL) was administered, and fluorescence imaging was performed transdermally with a near-infrared fluorescence camera (Fluobeam, manufactured by Fluoptics, http://www.solve-net.com/info/wp-content/uploads/downloads/2013/12/Fluobeam.pdf) (excitation wavelength: 780 nm, detection wavelength: 800 nm or more).

CC1(C)C(/C=C/C=C/C=C/C=C2\N(CCCCS(=O)(=O)O)c3ccc4ccccc4c3C2(C)C)=[N+](CCCCS(=O)(=O)[O-])c2ccc3ccccc3c21 [ICG, indocyanine green, reference compound]
drawing of tumor outline / exudation to surrounding tissues: fluorescence signals were emitted outside the tumor tissue, and the outline of the tumor could not be drawn
